Where “and” joins values, the source holds several entries; their conditions need not be identical. Equal entries are not always repeated. Entries after “also recorded” stand apart in the source; their conditions may differ.
Tests used:
[1] = test system: breast, prostate, colon, or lung cancer cell lines; assay: Eight-day colony formation assays, summary across the cancer cell line panel; type: cell-based, human; conditions: 8 days
Protocol: Initial colony formation screening assays were conducted on all acquired compounds and examined at five different compound concentrations. Those meeting efficacy criteria underwent a second-level screen examining nine different compound concentrations. Eight-day colony formation assays of cancer cells were performed as described by us. Briefly, 0.5–1.0 × 10^3 cells were seeded into each well of a 12-well plate. Twenty-four hours later, the compound was added at the following final concentrations: 0 (DMSO-only control), 0.017, 0.12, 0.82, 5.7, and 40 µM. For each concentration, there were N = 2 replicates, i.e., 2 wells. Eight days later, plates were stained with trypan blue, visualized under light microscopy, and groups of three or more cells were scored as colonies. The mean number of colonies was then determined and expressed as the percentage of controls. Second-level screens were performed on compounds inhibiting colony formation by greater than 50% at 40 µM in at least two cell lines. Second-level assays used the following final concentrations of compound: 0 (DMSO only), 0.0061, 0.018, 0.05, 0.16, 0.49, 1.48, 4.44, 13.33, and 40 µM. All compounds were stored under desiccated conditions in a sealed container at minus 20 °C upon arrival. One day prior to use, they were dissolved in DMSO, stored at minus 20 °C as stock solutions, thawed just prior to use, and not reused.
(§1) Human hematopoietic stem cell trilineage colony formation assays were performed as previously described by us. Briefly, human cord blood CD34+ cells (catalog #: 70008.5) were purchased from StemCell Technology Inc. and seeded at 1 × 10^4 cells per 35 mm dish. Cells were cultured in MethoCult™ Express (StemCell Technologies, Inc. (Vancouver, BC, Canada)) semisolid media, per the manufacturer’s instructions, in the presence of compound or vehicle (for controls). Compounds were added at final concentrations matching those used in the initial growth assay screens. At eight days, colonies (i.e., groups of ≥10 cells) were counted. At fourteen days, individual colonies of erythroid burst-forming units (BFU-E), colony-forming unit granulocyte–macrophage (CFU-GM), and colony-forming unit granulocyte, erythrocyte, monocyte, and megakaryocyte (CFU-GEMM) were identified based on the manufacturers’ morphologic characterization criteria. Assays were run in replicates of N = 2, and some were run in replicates of N = 4, as denoted. The mean number of colonies was then determined and expressed as the percentage of controls. The effect of each compound on inhibiting the growth of cancer cells relative to its toxic effects on normal bone marrow was evaluated. This was carried out by comparing colonies at 8 days for each cancer cell line to that of bone marrow. This information was used to calculate the efficacy ratio, as follows: efficacy ratio = (percent of remaining cancer cell colonies)/(percent of remaining bone marrow colonies). This was performed for all compounds at 40 µM and for selected compounds at 5.7 µM, as denoted. For compounds nominated for second-level screens, bone marrow colony formation assays were also repeated. Compounds were added at final concentrations matching those used in the initial screens.
We sought to identify compounds that would inhibit the growth of cancer cells, but that also did so selectively. Inhibition of cancer cell growth is a highly sought after attribute of anticancer agents. This was assessed by measuring the ability of a compound to inhibit cell growth in eight-day colony formation assays and examining concentrations ranging from 0.017 to 40 µM. Breast, colon, lung, and prostate cancer are four of the most common types of cancer in the United States, are major causes of cancer cell death, and were examined. […]

[2] = test system: human cord blood CD34+ cells; assay: Bone marrow stem cell (hematopoietic trilineage) colony formation assay; type: cell-based
Protocol: as §1
In parallel with measuring growth inhibition of cancer cell growth, we measured the effect on human hematopoietic stem cells. Hematopoietic stem cells reside in the bone marrow and are the source of mature cells present in blood. Bone marrow is one of the most sensitive organs in the body to drug toxicity, and this is especially so for anticancer drugs, where bone marrow toxicity can approach 100% [78, 79, 80]. Bone marrow toxicity was measured by performing hematopoietic colony formation assays on human CD34+ stem cells. The stem cell nature of this assay permitted the assessment of trilineage colony formation: granulocytic (white blood cells), erythrocytic (red blood cells), and megakaryocytic (platelets), measured by the formation of CFU-GM, BFU-E, and CFU-GEMM colonies, respectively. Two measurements were taken. First, total colonies at eight days were measured, thereby matching the eight-day timeframe of cancer cell colony formation assays. Second, at fourteen days, individual colonies had differentiated, permitting quantification of each lineage.

[3] = test system: cleaved caspase 3; assay: Western blot for cleaved caspase 3, M14; type: cell-based, human; conditions: up to 10 µM, three days
Protocol: After treatment of M14 and SK-MEL-5 cells with different concentrations of Dxr2-017 or vehicle for 3 or 8 days, as denoted, cell images were captured at 20X in a transmitted light channel using the EVOS™ M5000 Imaging System (Invitrogen (Waltham, MA, USA)). Western blots were performed as previously described by us. Briefly, cells were collected and lysed using RIPA lysis buffer (25 mM Tris-HCl pH 7.6, 150 mM NaCl, 1% NP-40, 1% sodium deoxycholate, and 0.1% SDS; Thermo Scientific^TM (Waltham, MA, USA), #89900), supplemented with protease and phosphatase inhibitor cocktail (Thermo Scientific^TM, #78442) and 1 mM of PMSF. Resultant Western blots were probed using antibodies against cleaved caspase 3 (Cell Signaling Technology (Danvers, MA, USA), #9664), pan-cadherin (Cell Signaling Technology, #4068), and β-actin (Santa Cruz (Santa Cruz, CA, USA), #sc-47778).
We then assessed whether Dxr2-017 induced apoptosis. We treated M14 and SK-MEL-5 cells with Dxr2-017 for three days at concentrations of up 10 and 20 µM, respectively, and measured cleaved caspase 3 using Western blot. […] In this assay, cells were grown in six-well plates and washed prior to lysis, and thus only adherent cells remained. […] Adherent cells are spread out and fusiform shaped, while detached/floating cells are round, as previously reported by us. […]

inhibition of normal bone marrow eight-day colony formation ([2]; 40 µM, 8 days): 30.2 ± 0.7% and 30% | decrease of BFU-E compared to the control ([2]; 40 µM, 14 days): 97.1 ± 4.1% | decrease of CFU-GM compared to the control ([2]; 40 µM, 14 days): 49.8 ± 0.0% | increase of CFU-GEMM compared to the control ([2]; 40 µM, 14 days): 16.1 ± 12.0% | inhibition of normal bone marrow fourteen-day total colony formation ([2]; 40 µM, 14 days): 42.6 ± 5.8% | Mean Number of Colonies, % of Control, 14 days ([2]; normal bone marrow, compound at 40 µM, 14 days, N = 2): 57 % of Control | Mean Number of Colonies, % of Control, 8 days ([2]; normal bone marrow, compound at 40 µM, total colonies at 8 days, N = 2): 70 % of Control
SMILES: c1ccc2sc(-c3ccc(CNc4ccc5nnnn5n4)o3)nc2c1 [Dxr2-017]
efficacy ratio, mean ± SEM over cell lines with ratio below 0.5 ([1]; 5.7 µM): 0.25 ± 0.091 | efficacy ratio, mean ± SEM over cell lines with ratio below 0.5 ([1]; 40 µM): 0.03 ± 0.01 | cleaved caspase 3, adherent and floating cells combined [3]: clear formation was observed | cleaved caspase 3, adherent cells only [3]: did not see any induction of cleaved caspase 3; also recorded: no formation of cleaved caspase 3
